Entries after “also recorded” stand apart in the source; their conditions may differ. Where two headings read alike, the source gives them in different places.
Experiments:
Format in all cases: cell-based
h293 cells = assay: ATP levels by CellTiterGlo in h293 cells (inhibition assays)
Procedure: Drugs. All drugs were obtained from Sigma except diphenhydramine (purchased commercially as 25 mg allergy tablets) and famotidine (purchased commercially as 10 mg acid controller tablets). All compounds were dissolved in ultrapure water except quinine, which was re-suspended in ethanol. Rotenone was prepared as a concentrated solution in 100% DMSO, then diluted to a working stock (125 μM) in water (final concentration 2.5 μM). 2-DG was used at a final concentration of 20 mM. Diphenhydramine and famotidine were crushed by mortar and pestle, re-suspended in H2O and rotated at room temperature for 1 h. Insoluble material (e.g., cellulose) was removed by centrifugation. […] Cigar smoke was generated from commercially available Backwoods brand containing nicotine.
Cell culture. The following immortalized cells were obtained from the American Tissue Culture Collection: H293 kidney epithelial cells, HDFs (human diploid fibroblasts immortalized by telomerase expression), and U549 lung carcinoma cells. Cells were maintained in DMEM (Fisher Scientific) supplemented with 10% fetal bovine serum (FBS; Atlas Biologicals, Fort Collins, Colo.). DMEM media contained high glucose (25 mM) and the standard amino acids as carbon sources. Cultures were maintained in a 37° C. water jacketed incubator with 5% CO2. When needed cells were removed from the plate using trypsin. It is important to note that FBS and many commercial preparations of trypsin contain glucose. Unless indicated otherwise, after removal, cells were pelleted by centrifugation (2K 4 min room temperature), aspirated, and re-suspended in the desired media. Other media used in this study were DMEM no glu (Fisher Scientific), which is identical to DMEM except it lacks glucose. L-15 media (Fisher Scientific) contains amino acids but replaces glucose with 5 mM galactose. It also lacks sodium bicarbonate (NaHCO3), which was added to the same concentration as in DMEM (44 mM) in all experiments except FIGS. 4A and 4B. Its presence is essential to buffer the media and prevent its acidification in the CO2 incubator. A DMEM type media lacking sodium bicarbonate was also generated using individual components obtained from Fisher Scientific and Sigma. This media was used for FIG. 4D, where its pH was varied by the addition of 500 mM Hepes pH 7-10 (25 mM final concentration).
Inhibition assays. In general, short term immediate effects of the indicated drugs on ATP levels were analyzed by removing growing cells from a p100 mm plate using trypsin, washing with PBS, and re-suspending in the indicated media. After counting using a hemocytometer, 25-50k cells in […] media were distributed in a 96 well white flat bottom, non-treated polystyrene assay plate. In some cases, media was supplemented by the addition of glucose (20 mM final). The plate was typically incubated for 30 min at 37° C. in a CO2 incubator to allow metabolic pathways to adapt to the media. Drugs when then added in the order and at the concentration indicated for each figure, followed by shaking (700 RPM 10 sec), and returned to the incubator. Incubation times were generally between 1 and 2 h so that direct and immediate effects on ATP production could be evaluated. In most cases samples were run in duplicate or triplicate and the standard deviation determined. FIG. 1B is a more traditional drug analysis, in that cells were seeded in a tissue culture treated 96-well plate, allowed to attach overnight, then treated with 10 μL CellTiterBlue resazurin reagent (Promega) to determine effects on viability. Plates were shaken and incubated in the dark for 1-4 h, followed by excitation at 560 nm and determination of fluorescence emitted at 590 nm using a Tecan Safire plate reader. […] Luciferase activity alone (FIG. 1C) was measured by adding 10 CellTiterGlo reagent to 100 μL DMEM media in the absence of cells. […] The luminescence was determined immediately and at later times as described above.

Red blood cells = assay: ATP levels by CellTiterGlo in red blood cells; conditions: RBCs in DMEM containing 5 mM glucose
[1] = tested on: Human Diploid Fibroblasts (HDFs); assay: ATP levels by CellTiterGlo in Human Diploid Fibroblasts; conditions: HDFs in DMEM, in the presence of 2-DG
Procedure: Cell culture. […] Cells were maintained in DMEM (Fisher Scientific) supplemented with 10% fetal bovine serum (FBS; Atlas Biologicals, Fort Collins, Colo.). DMEM media contained high glucose (25 mM) and the standard amino acids as carbon sources. Cultures were maintained in a 37° C. water jacketed incubator with 5% CO2. When needed cells were removed from the plate using trypsin. […] Unless indicated otherwise, after removal, cells were pelleted by centrifugation (2K 4 min room temperature), aspirated, and re-suspended in the desired media.
Inhibition assays. In general, short term immediate effects of the indicated drugs on ATP levels were analyzed by removing growing cells from a p100 mm plate using trypsin, washing with PBS, and re-suspending in the indicated media. After counting using a hemocytometer, 25-50k cells in 100 mL media were distributed in a 96 well white flat bottom, non-treated polystyrene assay plate. In some cases, media was supplemented by the addition of glucose (20 mM final). […] Incubation times were generally between 1 and 2 h so that direct and immediate effects on ATP production could be evaluated. In most cases samples were run in duplicate or triplicate and the standard deviation determined. […] The luminescence was determined immediately and at later times as described above.

[2] = h293 cells in DMEM no glucose (amino acids only), metabolic inhibitors for 1 h
[3] = h293 cells in DMEM with glucose, metabolic inhibitors for 1 h (2-DG 20 mM, rotenone 2.5 μM)
[4] = h293 cells in L-15 media (galactose instead of glucose), metabolic inhibitors
[5] = h293 cells in L-15 media lacking NaHCO3 (acidified), 37° C. CO2 incubator
[6] = h293 cells in DMEM (glucose and amino acids), drug alone, short exposure (2 h), no 2-DG or rotenone
[7] = h293 cells in DMEM containing amino acids but lacking glucose, drug alone
[8] = h293 cells in DMEM, in the presence of 2-DG (forced TCA/ETC), drug 2 h
[9] = h293 cells in DMEM, in the presence of rotenone (forced glycolysis), drug 2 h
[10] = h293 cells in L-15 media (galactose, plus NaHCO3), no glucose, drug titration
[11] = h293 cells in L-15 media plus glucose, drug titration

O=CC[C@@H](O)[C@H](O)[C@H](O)CO [2-DG, 2-deoxy-D-glucose]
effect on ATP production (h293 cells; [2]): significant inhibition
effect on ATP levels (h293 cells; [3]): minimal effect on ATP levels
effect on ATP production (h293 cells; [4]): partially inhibited
effect on ATP production (h293 cells; [5]): sensitive

CCN(CC)CCCC(C)Nc1ccnc2cc(Cl)ccc12 (stereo not shown) [CQ, chloroquine]
effect on ATP production via glycolysis (Red blood cells): no effect on ATP production
effect on ATP levels [1]: confirmed
effect on ATP levels (h293 cells; [6]): no apparent effect on ATP levels
effect on ATP production (h293 cells; [7]): inhibited ATP production
effect on ATP levels (h293 cells; h293 cells in DMEM no glucose with glucose added back): minimal effect on ATP levels
effect on ATP levels (h293 cells; [8]): markedly reduced; also recorded: synergistic effect that dramatically reduced ATP production
effect on ATP levels (h293 cells; [9]): no effect on ATP levels
effect on ATP production (h293 cells; [10]): inhibited ATP production; also recorded: very sensitive
effect on ATP production (h293 cells; [5]): no CQ inhibition
effect on ATP production (h293 cells; [11]): prevented inhibition
time course of inhibition of ATP production (h293 cells; h293 cells in L-15 media plus sodium bicarbonate, 250 μM CQ): increased dramatically over time
ATP production after order of addition (h293 cells; h293 cells in media containing glucose treated with CQ, then 2-DG added): re-established inhibition of ATP production; also recorded: CQ inhibition is revealed in the presence of 2-DG
ATP levels after order of addition (h293 cells; h293 cells pre-incubated with CQ 2 h in media lacking glucose, then glucose added for 1 h): re-established ATP levels; also recorded: glucose overcomes CQ inhibition
pH dependency of inhibition of ATP production (h293 cells; h293 cells, 1 h in DMEM type media lacking NaHCO3 adjusted to pH 7 to 10 with 25 mM Hepes, then L-15): dramatic increase in CQ inhibition with increasing pH; also recorded: Increasing media pH increases ability of CQ to inhibit ATP production
effect on ATP levels (CellTiterGlo) (h293 cells; h293 cells, overnight titration, same cells as CellTiterBlue): clear CQ dependent decrease

CCN(CCO)CCCC(C)Nc1ccnc2cc(Cl)ccc12 (stereo not shown) [HCQ, hydroxychloroquine]
effect on ATP production (h293 cells; [7]): inhibited ATP production
effect on ATP levels (h293 cells; [8]): synergistic effect that dramatically reduced ATP production
effect on ATP levels (h293 cells; [9]): no effect on ATP levels
effect on ATP production (h293 cells; [10]): inhibited ATP production; also recorded: very sensitive
effect on ATP production (h293 cells; [11]): prevented inhibition

C=C[C@H]1C[N@@]2CC[C@H]1C[C@H]2[C@H](O)c1ccnc2ccc(OC)cc12 [Quinine, quinine]
effect on ATP levels (h293 cells; [8]): much more dramatic in the presence of 2-DG

CN(C)CCOC(c1ccccc1)c1ccccc1 [diphenhydramine]
effect on ATP levels (h293 cells; [6]): minimal effect on ATP production
effect on ATP levels (h293 cells; [8]): strongly inhibited; also recorded: specifically inhibited mitochondrial ATP production

NC(N)=Nc1nc(CSCCC(N)=NS(N)(=O)=O)cs1 [famotidine]
effect on ATP levels (h293 cells; [6]): no effect on ATP production
effect on ATP levels (h293 cells; [8]): no effect on ATP production

CN1CCCC1c1cccnc1 (stereo not shown) [nicotine]
effect on ATP levels (h293 cells): specificity for inhibiting mitochondrial ATP production

C=C(C)[C@H]1Cc2c(ccc3c2O[C@@H]2COc4cc(OC)c(OC)cc4[C@@H]2C3=O)O1 [rotenone]
effect on ATP production (h293 cells; [2]): complete inhibition
effect on ATP levels (h293 cells; [3]): no effect
effect on ATP production (h293 cells; [4]): completely inhibited
effect on ATP production (h293 cells; [5]): sensitive

From patent US20220031719A1, “ANTIVIRAL THERAPEUTIC DRUG COMBINATIONS” (THE UNIVERSITY OF TULSA, priority 2020, published 2022)
